Source: patent US8853244B2, “Thiophene-carboxamides useful as inhibitors of protein kinases” (Vertex Pharmaceuticals Incorporated, priority 2006, dated 2014)
pKi: −log10 of the molar value.

Molecular target: T1, Plk1 (Homo sapiens, UniProt P53350)
T1 construct: in the presence of 15 nM Plk1 (A20-K338)
Experiment: Plk1 inhibition assay (radioactive-phosphate incorporation)
Assay type: biochemical
Details: Ki(app)
Protocol: The compounds of the present invention are evaluated as inhibitors of human PLK kinase using the following assays.
Compounds were screened for their ability to inhibit Plk1 using a radioactive-phosphate incorporation assay. Assays were carried out in a mixture of 25 mM HEPES (pH 7.5), 10 mM MgCl2, and 1 mM DTT. Final substrate concentrations were 50 μM [γ-33P]ATP (136 mCi 33P ATP/mmol ATP, Amersham Pharmacia Biotech/Sigma Chemicals) and 10 μM peptide (SAM68 protein Δ332-443). Assays were carried out at 25° C. in the presence of 15 nM Plk1 (A20-K338). An assay stock buffer solution was prepared containing all of the reagents listed above, with the exception of ATP and the test compound of interest. 30 μL of the stock solution was placed in a 96 well plate followed by addition of 2 μL of DMSO stock containing serial dilutions of the test compound (typically starting from a final concentration of 10 μM with 2-fold serial dilutions) in duplicate (final DMSO concentration 5%). The plate was pre-incubated for 10 minutes at 25° C. and the reaction initiated by addition of 8 μL [γ-33P]ATP (final concentration 50 μM). […]
After removing mean background values for all of the data points, Ki(app) data were calculated from non-linear regression analysis of the initial rate data using the Prism software package (GraphPad Prism version 3.0cx for Macintosh, GraphPad Software, San Diego Calif., USA). […]

T1 sequence (P53350 20-338): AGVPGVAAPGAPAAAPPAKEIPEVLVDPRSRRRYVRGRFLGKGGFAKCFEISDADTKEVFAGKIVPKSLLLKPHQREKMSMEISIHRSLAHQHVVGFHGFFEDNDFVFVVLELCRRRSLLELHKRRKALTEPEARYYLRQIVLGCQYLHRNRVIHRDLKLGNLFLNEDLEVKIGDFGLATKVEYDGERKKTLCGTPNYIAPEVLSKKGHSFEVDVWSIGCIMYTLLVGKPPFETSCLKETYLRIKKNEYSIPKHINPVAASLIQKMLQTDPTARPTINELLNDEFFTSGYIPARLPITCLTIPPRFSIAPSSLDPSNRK

pKi: > 8.00
SMILES: CC(Oc1cc(-c2cc(-c3cccc(Cl)c3)cnc2N)sc1C(N)=O)c1ccccc1Cl (stereo not shown) [I-3, 5-[2-Amino-5-(3-chloro-phenyl)-pyridin-3-yl]-3-[1-(2-chloro-phenyl)-ethoxy]-thiophene-2-carboxylic acid amide]
